Measured values reported in ChEMBL document CHEMBL1145843 (J Med Chem, 2003).
The source made the active and inactive calls.

Legend:
[1] = Inhibitory concentration of compound for inhibiting hematin polymerization; format: functional
[2] = Hematin binding affinity of compound was determined as a measure of inhibiting hematin polymerization
[3] = tested on: Plasmodium falciparum; test: Growth inhibition against Plasmodium falciparum K1; Not active <= 3000nM; format: functional, organism-based
[4] = tested on: Plasmodium falciparum; test: Growth inhibition against Plasmodium falciparum NF54; Not active <= 3000nM; format: functional, organism-based

| IC50 [1] | Ka [2] | SMILES | NI [3] | NI [4] |
| --- | --- | --- | --- | --- |
| 1500 µM | 84000 M⁻¹ | CCN(CC)CCCC(C)Cc1ccnc2cc(Cl)ccc12 (configuration not stated) | inactive | inactive |
| > 2500 µM | – | CCN(CC)CCCC(C)Nc1cccc2cc(Cl)ccc12 (configuration not stated) | inactive | inactive |
